From ChEMBL document CHEMBL1139581, “BCUT descriptors to predicting affinity toward A3 adenosine receptors” (Bioorg Med Chem Lett, 2005)

Biological target: T1, Adenosine receptor A3 (Rattus norvegicus, UniProt P28647)
T1 sequence (P28647 whole entry): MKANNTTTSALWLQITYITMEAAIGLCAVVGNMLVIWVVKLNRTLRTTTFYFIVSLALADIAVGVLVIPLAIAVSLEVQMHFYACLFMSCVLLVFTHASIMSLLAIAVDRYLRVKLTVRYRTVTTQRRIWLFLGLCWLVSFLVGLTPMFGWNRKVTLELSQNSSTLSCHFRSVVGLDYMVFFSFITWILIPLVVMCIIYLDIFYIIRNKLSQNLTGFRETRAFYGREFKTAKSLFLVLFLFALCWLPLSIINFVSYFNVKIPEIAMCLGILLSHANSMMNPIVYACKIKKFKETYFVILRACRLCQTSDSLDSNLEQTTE
Assay: Displacement of radioligand [125I]AB-MECA binding at rat A3 receptor expressed in CHO cells
Assay type: cell-based

Ki	Compound
405 nM	CCNC(=O)[C@@H]1OC(n2cnc3c(NC(=O)Nc4ccc(S(=O)(=O)Nc5ncccn5)cc4)ncnc32)[C@@H](O)[C@H]1O (some centres not stated)
54.1 nM	CCNC(=O)[C@H]1OC(n2cnc3c(NC(=O)Nc4ccc(S(=O)(=O)Nc5ccccn5)cc4)ncnc32)[C@H](O)[C@@H]1O (some centres not stated)
